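Protocol summary: plate cells (96-well), add compound at 5 concentrations, incubate 48 h, interpolate endpoints linearly. The concentration for full growth arrest is given as TGI.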
Key:
Experiment in all cases: NCI-60 cell line screen, 48 h
A549 NSCLC = test system: A549 NSCLC
KM12 colon = test system: KM12 colon
SF-539 CNS = test system: SF-539 CNS
IGROV1 ovarian = test system: IGROV1 ovarian
NCI/ADR-RES ovarian = test system: NCI/ADR-RES ovarian
CAKI-1 renal = test system: CAKI-1 renal
SNB-19 CNS = test system: SNB-19 CNS
HOP-92 NSCLC = test system: HOP-92 NSCLC
UO-31 renal = test system: UO-31 renal
NCI-H226 lung = test system: NCI-H226 lung
A498 renal = test system: A498 renal
MOLT-4 leukemia = test system: MOLT-4 leukemia
DU-145 prostate = test system: DU-145 prostate
CCRF-CEM leukemia = test system: CCRF-CEM leukemia
MDA-N = test system: MDA-N
HCT-15 colon = test system: HCT-15 colon
MDA-MB-231 breast = test system: MDA-MB-231 breast
NCI-H460 lung = test system: NCI-H460 lung
COLO 205 colon = test system: COLO 205 colon
HT29 colon = test system: HT29 colon
MALME-3M melanoma = test system: MALME-3M melanoma
NCI-H522 lung = test system: NCI-H522 lung
K-562 leukemia = test system: K-562 leukemia
PC-3 prostate = test system: PC-3 prostate
TK-10 renal = test system: TK-10 renal
HS 578T breast = test system: HS 578T breast
MDA-MB-435 = test system: MDA-MB-435
HOP-62 NSCLC = test system: HOP-62 NSCLC
SW-620 colon = test system: SW-620 colon
EKVX NSCLC = test system: EKVX NSCLC
SF-295 CNS = test system: SF-295 CNS
UACC-62 melanoma = test system: UACC-62 melanoma
786-0 renal = test system: 786-0 renal
OVCAR-4 ovarian = test system: OVCAR-4 ovarian
U251 CNS = test system: U251 CNS
RPMI-8226 leukemia = test system: RPMI-8226 leukemia
SNB-75 CNS = test system: SNB-75 CNS
SF-268 CNS = test system: SF-268 CNS
RXF 393 renal = test system: RXF 393 renal
OVCAR-5 ovarian = test system: OVCAR-5 ovarian
SR leukemia = test system: SR leukemia
LOX IMVI melanoma = test system: LOX IMVI melanoma
MCF7 breast = test system: MCF7 breast
ACHN renal = test system: ACHN renal
SK-MEL-28 melanoma = test system: SK-MEL-28 melanoma
SK-MEL-5 melanoma = test system: SK-MEL-5 melanoma
M14 melanoma = test system: M14 melanoma
OVCAR-8 ovarian = test system: OVCAR-8 ovarian
T-47D breast = test system: T-47D breast
SK-MEL-2 melanoma = test system: SK-MEL-2 melanoma
HCC-2998 colon = test system: HCC-2998 colon
NCI-H23 lung = test system: NCI-H23 lung
HL-60(TB) leukemia = test system: HL-60(TB) leukemia
OVCAR-3 ovarian = test system: OVCAR-3 ovarian
SK-OV-3 ovarian = test system: SK-OV-3 ovarian
UACC-257 melanoma = test system: UACC-257 melanoma

Measured: TGI

C[C@@]12[C@H]3CC[C@@H]1[C@H](O)C(=O)N2CC3
> 100 µM: all assays above
